{"source": "paper PMC11476342", "about": "(Cancers, 2024)", "key": {"[1]": {"conditions": "cited from earlier work"}, "[2]": {"parameters": "method as in PMID 33723398, PMID 29733771, PMID 27063977, PMID 27063978, PMID 26341814", "conditions": "patients; cited from earlier work"}, "J82 [3]": {"system": "J82", "assay": "MTT cell viability assay", "type": "cell-based, human", "conditions": "for IC50: read-out: IC50 ± SD", "protocol": "(§1) The cell viability for determination of IC50 values and synergism studies was analyzed by MTT assay as previously described. […] For preincubation experiments, 1600 c/w (cells per well) for J82 and 1200 c/w for J82 cisR were used. After the incubation time, 25 µL MTT (3-(4,5-dimethylthiazol-2-yl)-2,5-diphenyltetrazolium bromide, Serva, Heidelberg, Germany) solution (5 mg/mL in phosphate-buffered saline) was added. The formazan was dissolved in 75 µL DMSO, and the absorption was measured at 540 nm and 690 nm with a microplate reader (ThermoFisher Multiskan, Thermo Scientific, Wesel, Germany)."}, "J82 cisR [4]": {"system": "J82 cisR", "assay": "MTT cell viability assay", "type": "cell-based, human", "conditions": "for IC50: read-out: IC50 ± SD", "protocol": "as §1"}, "HEK293": {"system": "HEK293", "assay": "MTT cell viability assay, non-cancer cell line", "type": "cell-based, human", "conditions": "for IC50: Homo sapiens, HEK293, MTT, 72 h, compound alone, read-out: IC50 ± SD", "protocol": "as §1"}, "J82 [5]": {"system": "J82", "assay": "RT-qPCR gene expression", "type": "cell-based, human", "conditions": "48 h; ENT 0.316 µM; JQ1 1 µM; ENT + JQ1 0.316 + 1 µM", "excerpt": "(§2) RNA was isolated using the RNeasy Mini Kit (Qiagen, Hilden, Germany). Subsequently, the RNA was transcribed into cDNA using the High-Capacity cDNA Reverse Transcription Kit (Thermo Scientific, Wesel, Germany). For an RT-PCR, GoTaq qPCR Master Mix (Promega, Fitchburg, WI, USA) and a CFX96 Real-Time System (BIO-RAD, Hercules, CA, USA) were used. The relative changes in gene expression were normalized to the control genes GUSB (beta-glucuronidase), TBP (TATA binding protein), and HPRT1 (hypoxanthine–guanine phosphoribosyltransferase) by Vandesompele method [54]."}, "T24 LTT": {"system": "T24 LTT", "assay": "MTT cell viability assay", "type": "cell-based, human", "conditions": "Homo sapiens; MTT, 72 h, compound alone; read-out: IC50 ± SD", "protocol": "as §1"}, "T24": {"system": "T24", "assay": "MTT cell viability assay", "type": "cell-based, human", "conditions": "Homo sapiens, T-24; MTT, 72 h, compound alone; read-out: IC50 ± SD", "protocol": "as §1"}, "J82 cisR [6]": {"system": "J82 cisR", "assay": "RT-qPCR gene expression", "type": "cell-based, human", "conditions": "48 h; ENT 0.316 µM; JQ1 0.1 µM; ENT + JQ1 0.316 + 0.1 µM", "excerpt": "as §2"}, "HBLAK": {"system": "HBLAK", "assay": "MTT cell viability assay, non-cancer cell line", "type": "cell-based, human", "protocol": "as §1"}, "[7]": {"conditions": "Homo sapiens, J82, 72 h, MTT, 72 h, compound alone"}, "[8]": {"conditions": "Homo sapiens, 72 h, MTT, 72 h, compound alone"}}, "note": "Like-named read-outs stand apart in the source and are kept apart here."}
{"smiles": "Cc1sc2c(c1C)C(c1ccc(Cl)cc1)=N[C@@H](CC(=O)Nc1ccc(O)cc1)c1nnc(C)n1-2", "note": "[OTX015]", "values": [{"measurement": "bioavailability", "setting": "[1]; OTX015: oral, in contrast to JQ1", "value": "better"}, {"measurement": "half-life", "setting": "[1]; in vivo, OTX015 in contrast to JQ1", "value": "extended"}, {"measurement": "dose-limiting toxicities", "setting": "[2]", "value": "anemia, thrombocytopenia, fatigue, and hyperbilirubinemia"}, {"measurement": "IC50", "setting": "J82 [3]; [7]", "value": "18.9 ± 2.82", "unit": "µM"}, {"measurement": "IC50", "setting": "J82 cisR [4]; [8]", "value": "1.04 ± 0.13", "unit": "µM"}, {"measurement": "IC50", "setting": "HEK293", "value": "1.98 ± 0.42", "unit": "µM"}]}
{"smiles": "Nc1ccccc1NC(=O)c1ccc(CNC(=O)OCc2cccnc2)cc1", "note": "[Entinostat, entinostat]", "values": [{"measurement": "Bim gene expression, decadic logarithm of normalized expression", "setting": "J82 [5]", "value": -0.015}, {"measurement": "FOXO1 gene expression, decadic logarithm of normalized expression", "setting": "J82 [5]", "value": -0.054}, {"measurement": "FOXO3a gene expression, decadic logarithm of normalized expression", "setting": "J82 [5]", "value": -0.125}, {"measurement": "p53 gene expression, decadic logarithm of normalized expression", "setting": "J82 [5]", "value": -0.125}, {"measurement": "survivin gene expression, decadic logarithm of normalized expression", "setting": "J82 [5]", "value": -0.149}, {"measurement": "IC50", "setting": "T24 LTT", "value": "1.38 ± 0.1", "unit": "µM"}, {"measurement": "SF", "setting": "J82 [3]; 48 h preincubation with the other inhibitor (ENT after 1 µM JQ1; JQ1 after 0.316 µM ENT), then another 72 h", "value": 1.44}, {"measurement": "SF", "setting": "J82 [3]; 72 h co-incubation with the other epigenetic inhibitor: ENT with 1 µM JQ1, JQ1 with 0.316 µM ENT", "value": 1.68}, {"measurement": "IC50", "setting": "J82 [3]; [7]", "value": "12.3 ± 1.08", "unit": "µM"}, {"measurement": "IC50", "setting": "J82 [3]; Homo sapiens, J82, control of the 48 h preincubation scheme, compound 72 h", "value": "9.59 ± 0.81", "unit": "µM"}, {"measurement": "IC50", "setting": "J82 [3]; MTT, 72 h, compound alone", "value": "10.4 ± 0.89", "unit": "µM"}, {"measurement": "SF", "setting": "J82 cisR [4]; 48 h preincubation with the other inhibitor (ENT after 0.1 µM JQ1; JQ1 after 0.316 µM ENT), then another 72 h", "value": 1.45}, {"measurement": "SF", "setting": "J82 cisR [4]; 72 h co-incubation with the other epigenetic inhibitor: ENT with 0.1 µM JQ1, JQ1 with 0.316 µM ENT", "value": 1.97}, {"measurement": "IC50", "setting": "J82 cisR [4]; [8]", "value": "10.4 ± 0.94", "unit": "µM"}, {"measurement": "IC50", "setting": "J82 cisR [4]; Homo sapiens, control of the 48 h preincubation scheme, compound 72 h", "value": "9.38 ± 0.89", "unit": "µM"}, {"measurement": "IC50", "setting": "J82 cisR [4]; MTT, 72 h, compound alone", "value": "7.6 ± 0.59", "unit": "µM"}, {"measurement": "IC50", "setting": "T24", "value": "5.68 ± 0.51", "unit": "µM"}, {"measurement": "Bim gene expression, decadic logarithm of normalized expression", "setting": "J82 cisR [6]", "value": -0.110}, {"measurement": "FOXO1 gene expression, decadic logarithm of normalized expression", "setting": "J82 cisR [6]", "value": 0.087}, {"measurement": "FOXO3a gene expression, decadic logarithm of normalized expression", "setting": "J82 cisR [6]", "value": -0.030}, {"measurement": "p21 gene expression, decadic logarithm of normalized expression", "setting": "J82 cisR [6]", "value": 0.049}, {"measurement": "p53 gene expression, decadic logarithm of normalized expression", "setting": "J82 cisR [6]", "value": -0.202}, {"measurement": "survivin gene expression, decadic logarithm of normalized expression", "setting": "J82 cisR [6]", "value": -0.100}, {"measurement": "IC50", "setting": "HBLAK; Homo sapiens, MTT, 72 h, compound alone, read-out: IC50 ± SD", "value": "1.45 ± 0.18", "unit": "µM"}, {"measurement": "reduction of cell viability", "setting": "HBLAK; entinostat and/or JQ1 in the absence of cisplatin (Figure 15a)", "value": "60–65%"}, {"measurement": "IC50", "setting": "HEK293", "value": "4.47 ± 0.77", "unit": "µM"}, {"measurement": "reduction of cell viability", "setting": "HEK293; entinostat and/or JQ1 in the absence of cisplatin (Figure 15b,c)", "value": "up to 20%"}]}
{"smiles": "Cc1sc2c(c1C)C(c1ccc(Cl)cc1)=NC(CC(=O)NCCCN1CCN(C)CC1)c1nnc(C)n1-2", "note": "(stereo not drawn) [JQ35]", "values": [{"measurement": "IC50", "setting": "J82 [3]; [7]", "value": "69.5 ± 7.88", "unit": "µM"}, {"measurement": "fold-increased IC50 value compared to JQ1", "setting": "J82 [3]; J82, MTT, 72 h", "value": 3.7, "unit": "fold"}, {"measurement": "IC50", "setting": "J82 cisR [4]; [8]", "value": "1.49 ± 0.34", "unit": "µM"}]}
